From the supplement of paper PMC10307832 come the findings set out here.

What all share (experiment): relative viability (nuclei count vs DMSO), 5 days (fraction); higher = more cells survive
Compound in the test “Bleomycin + Luminespib”: CC1=C(N=C(N=C1N)[C@H](CC(=O)N)NC[C@@H](C(=O)N)N)C(=O)N[C@@H]([C@H](C2=CN=CN2)OC3C(C(C(C(O3)CO)O)O)OC4C(C(C(C(O4)CO)O)OC(=O)N)O)C(=O)N[C@H](C)[C@H]([C@H](C)C(=O)N[C@@H]([C@@H](C)O)C(=O)NCCC5=NC(=CS5)C6=NC(=CS6)C(=O)NCCC[S+](C)C)O [Bleomycin] + CCNC(=O)c1noc(-c2cc(C(C)C)c(O)cc2O)c1-c1ccc(CN2CCOCC2)cc1 [Luminespib] (partner 0.01 µM)
The following applies: main component drawn. The procedure, abridged: (§1)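 Medians of duplicate plates are given as relative viability. That measure is the nuclei count in treated wells divided by the count in vehicle wells. Counts were taken on 4× images of lung cancer cell lines in 1536-well plates, 5 days after pin-tool dosing the day after seeding with one drug alone or a fixed anchor-drug dose plus five library-drug doses (not always all listed) in √10 steps.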

Compound in the test “Etoposide + Trametinib”: COc1cc([C@@H]2c3cc4c(cc3[C@@H](O[C@@H]3O[C@@H]5CO[C@@H](C)O[C@H]5[C@H](O)[C@H]3O)[C@H]3COC(=O)[C@H]23)OCO4)cc(OC)c1O [Etoposide] + CC(=O)Nc1cccc(-n2c(=O)n(C3CC3)c(=O)c3c(Nc4ccc(I)cc4F)n(C)c(=O)c(C)c32)c1 [Trametinib] (partner 0.02 µM)
The procedure, abridged: as §1

Compound in the test “Etoposide + Linsitinib”: COc1cc([C@@H]2c3cc4c(cc3[C@@H](O[C@@H]3O[C@@H]5CO[C@@H](C)O[C@H]5[C@H](O)[C@H]3O)[C@H]3COC(=O)[C@H]23)OCO4)cc(OC)c1O [Etoposide] + C[C@]1(O)C[C@@H](c2nc(-c3ccc4ccc(-c5ccccc5)nc4c3)c3c(N)nccn32)C1 [Linsitinib] (partner 1 µM)
In a few lines: as §1

Compound in the test “Etoposide + Decitabine”: COc1cc([C@@H]2c3cc4c(cc3[C@@H](O[C@@H]3O[C@@H]5CO[C@@H](C)O[C@H]5[C@H](O)[C@H]3O)[C@H]3COC(=O)[C@H]23)OCO4)cc(OC)c1O [Etoposide] + Nc1ncn([C@H]2C[C@H](O)[C@@H](CO)O2)c(=O)n1 [Decitabine] (partner 2 µM)
The procedure, abridged:
as §1

In the case of NCI-H727, the relative viability was found to be 0.375 with Bleomycin + Luminespib (first compound 0.01 µM); 0.376 in the test with Bleomycin + Luminespib (first compound 0.03162 µM); 0.357 with Bleomycin + Luminespib (first compound 0.1 µM); 0.223 in the test with Bleomycin + Luminespib (first compound 1 µM); 0.395 with Etoposide + Trametinib (first compound 0.01 µM); 0.43 with Etoposide + Trametinib (first compound 0.03162 µM). Moreover, the relative viability with Etoposide + Trametinib (first compound 0.1 µM) came out at 0.378; in the test with Etoposide + Trametinib (first compound 0.3162 µM), 0.338; with Etoposide + Trametinib (first compound 1 µM) it was 0.355; in the test with Etoposide + Linsitinib (first compound 0.01 µM) it was 0.239; in the test with Etoposide + Linsitinib (first compound 0.03162 µM) it was 0.286; with Etoposide + Linsitinib (first compound 0.1 µM), 0.3. The relative viability in the test with Etoposide + Linsitinib (first compound 0.3162 µM) worked out at 0.337; with Etoposide + Linsitinib (first compound 1 µM), 0.349; in the test with Etoposide + Decitabine (first compound 0.01 µM) it was 1.11; with Etoposide + Decitabine (first compound 0.03162 µM) it was 0.985; with Etoposide + Decitabine (first compound 0.1 µM), 0.681; in the test with Etoposide + Decitabine (first compound 0.3162 µM), 0.796. Also, the relative viability in the test with Etoposide + Decitabine (first compound 1 µM) is 0.63.
In the case of NCI-H838, the relative viability worked out at 0.269 in the test with Bleomycin + Luminespib (first compound 0.01 µM); 0.176 with Bleomycin + Luminespib (first compound 0.03162 µM); 0.142 in the test with Bleomycin + Luminespib (first compound 0.1 µM); 0.119 with Bleomycin + Luminespib (first compound 0.3162 µM); 0.162 in the test with Bleomycin + Luminespib (first compound 1 µM); 0.463 in the test with Etoposide + Trametinib (first compound 0.01 µM). The relative viability turned out to be 0.502 in the test with Etoposide + Trametinib (first compound 0.03162 µM); 0.378 in the test with Etoposide + Trametinib (first compound 0.1 µM); 0.406 in the test with Etoposide + Trametinib (first compound 0.3162 µM); 0.253 in the test with Etoposide + Trametinib (first compound 1 µM); 0.937 in the test with Etoposide + Linsitinib (first compound 0.01 µM); 0.994 in the test with Etoposide + Linsitinib (first compound 0.03162 µM). The relative viability was found to be 0.902 with Etoposide + Linsitinib (first compound 0.1 µM); 0.644 with Etoposide + Linsitinib (first compound 0.3162 µM); 0.296 with Etoposide + Linsitinib (first compound 1 µM); 0.445 with Etoposide + Decitabine (first compound 0.01 µM); 0.487 in the test with Etoposide + Decitabine (first compound 0.03162 µM); 0.49 with Etoposide + Decitabine (first compound 0.1 µM). Besides, the figures for the relative viability in the test with Etoposide + Decitabine (first compound 0.3162 µM) and in the test with Etoposide + Decitabine (first compound 1 µM) were 0.367 and 0.248, respectively.
On to NCI-H1355, for which the relative viability in the test with Bleomycin + Luminespib (first compound 0.01 µM) was found to be 0.672; with Bleomycin + Luminespib (first compound 0.03162 µM), 0.606; in the test with Bleomycin + Luminespib (first compound 0.1 µM), 0.698; in the test with Bleomycin + Luminespib (first compound 0.3162 µM), 0.304; with Bleomycin + Luminespib (first compound 1 µM) it was 0.289; with Etoposide + Trametinib (first compound 0.01 µM), 0.396. Besides, the relative viability with Etoposide + Trametinib (first compound 0.03162 µM) stood at 0.478; with Etoposide + Trametinib (first compound 0.1 µM), 0.27; in the test with Etoposide + Trametinib (first compound 0.3162 µM), 0.384; in the test with Etoposide + Trametinib (first compound 1 µM), 0.256; in the test with Etoposide + Linsitinib (first compound 0.01 µM), 0.732; with Etoposide + Linsitinib (first compound 0.03162 µM) it was 0.945. Besides, the relative viability with Etoposide + Linsitinib (first compound 0.1 µM) was 0.466; with Etoposide + Linsitinib (first compound 0.3162 µM), 0.585; with Etoposide + Linsitinib (first compound 1 µM) it was 0.334; in the test with Etoposide + Decitabine (first compound 0.01 µM), 0.362; with Etoposide + Decitabine (first compound 0.03162 µM), 0.384; in the test with Etoposide + Decitabine (first compound 0.1 µM), 0.363. The figures for the relative viability in the test with Etoposide + Decitabine (first compound 0.3162 µM) and with Etoposide + Decitabine (first compound 1 µM) were 0.279 and 0.287, respectively.
Turning to NCI-H1395, the relative viability was found to be 0.648 with Bleomycin + Luminespib (first compound 0.01 µM); 0.648 in the test with Bleomycin + Luminespib (first compound 0.03162 µM); 0.54 with Bleomycin + Luminespib (first compound 0.1 µM); 0.397 with Bleomycin + Luminespib (first compound 0.3162 µM); 0.47 in the test with Bleomycin + Luminespib (first compound 1 µM); 0.962 with Etoposide + Trametinib (first compound 0.01 µM). The relative viability amounted to 1.15 with Etoposide + Trametinib (first compound 0.03162 µM); 0.839 with Etoposide + Trametinib (first compound 0.1 µM); 1.01 with Etoposide + Trametinib (first compound 0.3162 µM); 0.808 in the test with Etoposide + Trametinib (first compound 1 µM); 1 in the test with Etoposide + Linsitinib (first compound 0.01 µM); 1.33 in the test with Etoposide + Linsitinib (first compound 0.03162 µM). For the same cell line, the relative viability with Etoposide + Linsitinib (first compound 0.1 µM) was found to be 0.836; with Etoposide + Linsitinib (first compound 0.3162 µM), 0.897; with Etoposide + Linsitinib (first compound 1 µM) it was 0.656; with Etoposide + Decitabine (first compound 0.01 µM), 0.726; with Etoposide + Decitabine (first compound 0.03162 µM), 0.755; with Etoposide + Decitabine (first compound 0.1 µM), 0.681. In addition, the relative viability in the test with Etoposide + Decitabine (first compound 0.3162 µM) worked out at 0.667; with Etoposide + Decitabine (first compound 1 µM) it was 0.653.
With NCI-H1437, the relative viability with Bleomycin + Luminespib (first compound 0.01 µM) is 1.01; with Bleomycin + Luminespib (first compound 0.03162 µM), 0.999; with Bleomycin + Luminespib (first compound 0.1 µM), 1; with Bleomycin + Luminespib (first compound 0.3162 µM), 0.63; with Bleomycin + Luminespib (first compound 1 µM), 0.585; in the test with Etoposide + Trametinib (first compound 0.01 µM) it was 0.417. Also, the relative viability with Etoposide + Trametinib (first compound 0.03162 µM) was 0.551; in the test with Etoposide + Trametinib (first compound 0.1 µM), 0.361; in the test with Etoposide + Trametinib (first compound 0.3162 µM), 0.412; with Etoposide + Trametinib (first compound 1 µM), 0.298; in the test with Etoposide + Linsitinib (first compound 0.01 µM) it was 0.993; with Etoposide + Linsitinib (first compound 0.03162 µM) it was 1.07. Further, the relative viability with Etoposide + Linsitinib (first compound 0.1 µM) worked out at 0.984; in the test with Etoposide + Linsitinib (first compound 0.3162 µM), 0.566; with Etoposide + Linsitinib (first compound 1 µM) it was 0.262; in the test with Etoposide + Decitabine (first compound 0.01 µM), 0.537; with Etoposide + Decitabine (first compound 0.03162 µM) it was 0.632; with Etoposide + Decitabine (first compound 0.1 µM) it was 0.568. Also, the relative viability with Etoposide + Decitabine (first compound 0.3162 µM) worked out at 0.441; in the test with Etoposide + Decitabine (first compound 1 µM), 0.332.
With NCI-H1651, the relative viability in the test with Bleomycin + Luminespib (first compound 0.01 µM) turned out to be 0.538; with Bleomycin + Luminespib (first compound 0.03162 µM), 0.574; in the test with Bleomycin + Luminespib (first compound 0.1 µM), 0.402; with Bleomycin + Luminespib (first compound 0.3162 µM) it was 0.257; with Bleomycin + Luminespib (first compound 1 µM) it was 0.205; with Etoposide + Trametinib (first compound 0.01 µM), 0.774. In addition, the relative viability with Etoposide + Trametinib (first compound 0.03162 µM) amounted to 0.783; with Etoposide + Trametinib (first compound 0.1 µM), 0.558; with Etoposide + Trametinib (first compound 0.3162 µM) it was 0.362; with Etoposide + Trametinib (first compound 1 µM) it was 0.165; with Etoposide + Linsitinib (first compound 0.01 µM), 0.885; with Etoposide + Linsitinib (first compound 0.03162 µM) it was 0.922. The relative viability amounted to 0.864 with Etoposide + Linsitinib (first compound 0.1 µM); 0.331 with Etoposide + Linsitinib (first compound 0.3162 µM); 0.134 in the test with Etoposide + Linsitinib (first compound 1 µM); 0.612 in the test with Etoposide + Decitabine (first compound 0.01 µM); 0.688 with Etoposide + Decitabine (first compound 0.03162 µM); 0.442 with Etoposide + Decitabine (first compound 0.1 µM). The relative viability with Etoposide + Decitabine (first compound 0.3162 µM) turned out to be 0.241; with Etoposide + Decitabine (first compound 1 µM), 0.128.
Consider NCI-H1666, for which the relative viability is 0.733 with Bleomycin + Luminespib (first compound 0.01 µM); 0.657 with Bleomycin + Luminespib (first compound 0.03162 µM); 0.583 in the test with Bleomycin + Luminespib (first compound 0.1 µM); 0.395 with Bleomycin + Luminespib (first compound 0.3162 µM); 0.436 with Bleomycin + Luminespib (first compound 1 µM); 0.818 in the test with Etoposide + Trametinib (first compound 0.01 µM). Moreover, the relative viability stood at 0.89 with Etoposide + Trametinib (first compound 0.03162 µM); 0.809 with Etoposide + Trametinib (first compound 0.1 µM); 0.526 with Etoposide + Trametinib (first compound 0.3162 µM); 0.508 with Etoposide + Trametinib (first compound 1 µM); 0.906 in the test with Etoposide + Linsitinib (first compound 0.01 µM); 0.765 with Etoposide + Linsitinib (first compound 0.03162 µM). The relative viability with Etoposide + Linsitinib (first compound 0.1 µM) came out at 0.523; with Etoposide + Linsitinib (first compound 0.3162 µM) it was 0.362; with Etoposide + Linsitinib (first compound 1 µM), 0.333; with Etoposide + Decitabine (first compound 0.01 µM), 0.746; with Etoposide + Decitabine (first compound 0.03162 µM) it was 0.798; with Etoposide + Decitabine (first compound 0.1 µM) it was 0.693. Also, the relative viability with Etoposide + Decitabine (first compound 0.3162 µM) is 0.582; with Etoposide + Decitabine (first compound 1 µM) it was 0.452.
